Data: US6358492B1, “Dopamine transporter imaging ligand” (Research Triangle Institute, priority 1997, dated 2002)
Counter-ions that a name gives are not always drawn. Like-named read-outs stand apart in the source and are kept apart here.

Key:
serotonin transporter [1] = target: serotonin transporter (UniProt P31652); details: read-out: IC50 5-HT [3H]Paroxetine; 0.2 nM [3H]paroxetine; values taken from literature (footnotes d-h); cited from earlier work
[2] = target: norepinephrine transporter (UniProt Q9WTR4); details: read-out: IC50 NE [3H]Nisoxetine; 0.5 nM [3H]nisoxetine; values taken from literature (footnotes d-h); cited from earlier work
[3] = tested on: norepinephrine transporter; experiment: Inhibition of 0.5 nM [3H]nisoxetine binding to the norepinephrine transporter; details: ratio of IC50 values
serotonin transporter [4] = assay type: binding; details: for 5-HT/DA Ratio: ratio of IC50 values
dopamine transporter [5] = target: T1, dopamine transporter (UniProt P23977); details: read-out: IC50 DA [3H]WIN 35,428; 0.5 nM [3H]WIN 35,428; values taken from literature (footnotes c-h); cited from earlier work
T1 construct: other: 0.5 nM [3H]WIN 35,428; mean ± standard error where given

[6] = target: norepinephrine transporter (UniProt Q9WTR4); experiment: Inhibition of 0.5 nM [3H]nisoxetine binding to the norepinephrine transporter; details: read-out: IC50 NE [3H]Nisoxetine; 0.5 nM [3H]nisoxetine; mean ± standard error where given
serotonin transporter [7] = target: serotonin transporter (UniProt P31652); assay type: binding; details: read-out: IC50 5-HT [3H]Paroxetine; 0.2 nM [3H]paroxetine; mean ± standard error where given
dopamine transporter [8] = target: dopamine transporter (Mus musculus, UniProt Q61327); experiment: In vivo binding / regional brain distribution of radiolabeled ligand after i.v. injection in mice
Chain of dopamine transporter (Mus musculus, UniProt Q61327) (Q61327 whole entry): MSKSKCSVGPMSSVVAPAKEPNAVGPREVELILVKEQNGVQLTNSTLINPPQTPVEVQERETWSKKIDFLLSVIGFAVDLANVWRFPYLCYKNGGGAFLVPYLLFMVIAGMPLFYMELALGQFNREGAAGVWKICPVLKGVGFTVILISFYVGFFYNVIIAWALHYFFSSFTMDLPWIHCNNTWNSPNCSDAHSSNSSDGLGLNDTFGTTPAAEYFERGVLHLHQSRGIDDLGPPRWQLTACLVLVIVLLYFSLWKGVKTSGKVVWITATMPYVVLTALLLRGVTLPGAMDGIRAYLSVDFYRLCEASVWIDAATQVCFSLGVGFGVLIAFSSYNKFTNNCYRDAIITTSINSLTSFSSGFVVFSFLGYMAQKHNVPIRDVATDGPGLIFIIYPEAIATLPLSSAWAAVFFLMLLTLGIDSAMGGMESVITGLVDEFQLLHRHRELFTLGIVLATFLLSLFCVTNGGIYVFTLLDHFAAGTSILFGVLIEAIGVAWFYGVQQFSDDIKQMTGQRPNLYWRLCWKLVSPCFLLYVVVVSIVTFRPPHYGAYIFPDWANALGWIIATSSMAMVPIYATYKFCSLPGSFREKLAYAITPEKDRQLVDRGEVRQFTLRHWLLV
Description: Male CD mice weighting 25-35 g received 1 μCi [^3H]RTI-352 ([…], diluted in saline containing 0.5% methanol) by intravenous injection. The animals were killed at different times, and [^3H]RTI-352 concentrations in different brain regions determined as previously described (Scheffel et al., 1989; Cline et al., 1992). To evaluate the selectivity of [^3H]RTI-352 in vivo binding, blocking doses (5 mg/kg, dissolved in 0.1 ml saline) of GBR 12,909 (DAT blocker), desipramine (NET blocker), or paroxetine (5-HTT blocker) were injected intravenously 5 minutes before [^3H]RTI-352 tracer injection. The animals were killed 30 minutes later and [^3H]RTI-352 concentrations determined in the various brain tissues.
The percent dose per gram tissue peaked rapidly in all regions of the brain and was maintained for a slightly longer time in the striatum compared to other tissues that lack DAT. The tissue to cerebellar ratios reflected this fact in that striatal to cerebellar ratios were relatively high at early times but low at later times (FIG. 1).

dopamine transporter [9] = target: T1, dopamine transporter; assay type: binding; details: read-out: IC50 DA [3H]WIN 35,428; 0.5 nM [3H]WIN 35,428; mean ± standard error where given

COC(=O)C1C(c2ccc(F)cc2)CC2CCC1N2C (stereo not shown) [1a]
IC50 (serotonin transporter [1]): 810 ± 59 nM
IC50 [2]: 835 ± 45 nM

COC(=O)C1C(c2ccc(I)cc2)CC2CCC1N2C (stereo not shown) [1b, reference compound]
NE/DA Ratio [3]: 29
IC50 (serotonin transporter [1]): 4.21 ± 0.3 nM
5-HT/DA Ratio (serotonin transporter [4]): 3.3

COC(=O)C1C(c2ccc(Cl)cc2)CC2CCC1N2C (stereo not shown) [1c]
IC50 (serotonin transporter [1]): 44.5 ± 1.3 nM

COC(=O)C1C(c2ccccc2)CC2CCC1N2C (stereo not shown) [1e]
IC50 [2]: 920 ± 73 nM
IC50 (dopamine transporter [5]): 23 ± 5 nM

COC(=O)[C@@H]1[C@H]2CC[C@@H](C[C@H]1c1ccc(F)cc1)N2C [2a, 3α-(4-Fluorophenyl)tropane-2β-carboxylic acid methyl ester]
IC50 [6]: 1230 nM
IC50 (serotonin transporter [7]): 5060 nM

COC(=O)[C@@H]1[C@H]2CC[C@@H](C[C@H]1c1ccc(I)cc1)N2C.Cc1ccc(S(=O)(=O)O)cc1 [2b, 3α-(4-Iodophenyl)tropane-2β-carboxylic acid methyl ester tosylate]
NE/DA Ratio [3]: 18
IC50 [6]: 52.4 ± 4.9 nM
time at which striatal-to-cerebellar ratio peaked (dopamine transporter [8]; mouse brain, i.v. tracer): about 30 min
time the peak striatal-to-cerebellar ratio was maintained thereafter (dopamine transporter [8]; mouse brain, i.v. tracer): about 20 min
IC50 (serotonin transporter [7]): 64.9 ± 1.97 nM
5-HT/DA Ratio (serotonin transporter [4]): 23
times more selective for the DAT relative to the 5-HT transporter (serotonin transporter [4]; relative to 1b (RTI-55)): 7 times
IC50 (dopamine transporter [9]): 2.85 ± 0.16 nM

COC(=O)[C@@H]1[C@H]2CC[C@@H](C[C@H]1c1ccc(Cl)cc1)N2C [2c, 3α-(4-Chlorophenyl)tropane-2β-carboxylic acid methyl ester tosylate]
IC50 (serotonin transporter [7]): 998 ± 120 nM
IC50 (dopamine transporter [9]): 2.4 ± 0.2 nM

COC(=O)[C@@H]1[C@H]2CC[C@@H](C[C@H]1c1ccc(C)cc1)N2C [2d, 3α-(4-Methylphenyl)tropane-2β-carboxylic acid methyl ester tosylate]
IC50 [6]: 275 ± 24 nM
IC50 (dopamine transporter [9]): 10.2 ± 0.8 nM

COC(=O)C1C(c2ccccc2)CC2CCC1N2C (stereo not shown) [2e]
IC50 [6]: 2080 nM
IC50 (dopamine transporter [9]): 101 ± 16 nM

[3H]C([3H])([3H])N1[C@H]2CC[C@@H]1[C@@H](C(=O)OC)[C@H](c1ccc(I)cc1)C2 [[^3H]RTI-352]
hypothalamus/cerebellum ratio (dopamine transporter [8]; mouse brain, i.v. 1 μCi tracer, little enrichment at any time): 1.4
efflux from brain (dopamine transporter [8]; mouse, i.v. injection): relatively rapid
penetration into brain (dopamine transporter [8]; mouse, i.v. injection): very rapid

COC(=O)[C@H]1[C@@H](c2ccc([125I])cc2)C[C@@H]2CC[C@H]1N2C [[^125I]RTI-55, reference compound]
approach to equilibrium of striatal to cerebellar ratios (dopamine transporter [8]; mouse, parallel in vivo labeling experiments): steadily increasing at 120 min
